Assay results taken from PubChem BioAssay AID2060616 (Molecular Pharmacology Branch, DTP, NCI, 2025).

System: 377384-186-R-J1-PDC complex spheroid viability
Test: Anticancer human tumor 377384-186-R-J1-PDC patient-derived pancreatic carcinoma cell line growth inhibition [CLK]
Conditions: for IC50: curve of first compound; for viability, T/C: stronger effect = lower value
In short: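 Patient-derived tumor cells grown as complex spheroids with HUVEC endothelial cells and mesenchymal stem cells, treated with drug combinations. Concentrations descend in half-log steps from near clinical Cmax, or from 10 microM if Cmax unknown.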

[1] = second compound 0.0316 µM, first compound 0.0316 µM
[2] = second compound 0.0316 µM, first compound 0.1 µM
[3] = second compound 0.0316 µM, first compound 0.316 µM
[4] = second compound 0.0316 µM, first compound 1 µM
[5] = second compound 0.0316 µM, first compound 3.16 µM
[6] = second compound 0.0316 µM, first compound 10 µM
[7] = second compound 0.1 µM, first compound 0.0316 µM
[8] = second compound 0.1 µM, first compound 0.1 µM
[9] = second compound 0.1 µM, first compound 0.316 µM
[10] = second compound 0.1 µM, first compound 1 µM
[11] = second compound 0.1 µM, first compound 3.16 µM
[12] = second compound 0.1 µM, first compound 10 µM
[13] = second compound 0.316 µM, first compound 0.0316 µM
[14] = second compound 0.316 µM, first compound 0.1 µM
[15] = second compound 0.316 µM, first compound 0.316 µM
[16] = second compound 0.316 µM, first compound 1 µM
[17] = second compound 0.316 µM, first compound 3.16 µM
[18] = second compound 0.316 µM, first compound 10 µM
[19] = second compound 1 µM, first compound 0.0316 µM
[20] = second compound 1 µM, first compound 0.1 µM
[21] = second compound 1 µM, first compound 0.316 µM
[22] = second compound 1 µM, first compound 1 µM
[23] = second compound 1 µM, first compound 3.16 µM
[24] = second compound 1 µM, first compound 10 µM
[25] = second compound 3.16 µM, first compound 0.0316 µM
[26] = second compound 3.16 µM, first compound 0.1 µM
[27] = second compound 3.16 µM, first compound 0.316 µM
[28] = second compound 3.16 µM, first compound 1 µM
[29] = second compound 3.16 µM, first compound 3.16 µM
[30] = second compound 3.16 µM, first compound 10 µM
[31] = second compound 10 µM, first compound 0.0316 µM
[32] = second compound 10 µM, first compound 0.1 µM
[33] = second compound 10 µM, first compound 0.316 µM
[34] = second compound 10 µM, first compound 1 µM
[35] = second compound 10 µM, first compound 3.16 µM
[36] = second compound 10 µM, first compound 10 µM
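Also: spheroids exposed to agents for 7 days before reading.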
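For viability, T/C in this document: luminescence signal used as a stand-in for viable cells.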

CC(=O)O[C@H]1C(=O)[C@@]2(C)[C@H]([C@H](OC(=O)c3ccccc3)[C@]3(O)C[C@H](OC(=O)[C@H](O)[C@@H](NC(=O)c4ccccc4)c4ccccc4)C(C)=C1C3(C)C)[C@]1(OC(C)=O)CO[C@@H]1C[C@@H]2O + CN1CCN(c2cc(C(=O)Nc3cc4cc(-c5cnn(C)c5)ccc4cn3)ccn2)CC1
IC50 (second compound 0.0316 µM): < 31.6 nM | IC50 (second compound 0.1 µM): < 31.6 nM | IC50 (second compound 0.316 µM): < 31.6 nM | IC50 (second compound 1 µM): < 31.6 nM | IC50 (second compound 3.16 µM): < 31.6 nM | IC50 (second compound 10 µM): < 31.6 nM | viability, T/C [1]: 9.18% | viability, T/C [2]: 9.07% | viability, T/C [3]: 7.15% | viability, T/C [4]: 8.23% | viability, T/C [5]: 10.1% | viability, T/C [6]: 14.8% | viability, T/C [7]: 7.97% | viability, T/C [8]: 9.15% | viability, T/C [9]: 10.9% | viability, T/C [10]: 10.7% | viability, T/C [11]: 8.46% | viability, T/C [12]: 15.1% | viability, T/C [13]: 9.05% | viability, T/C [14]: 9.91% | viability, T/C [15]: 10.6% | viability, T/C [16]: 11.4% | viability, T/C [17]: 15.1% | viability, T/C [18]: 14.1% | viability, T/C [19]: 0.76% | viability, T/C [20]: 0.53% | viability, T/C [21]: 1.35% | viability, T/C [22]: 0.93% | viability, T/C [23]: 0.78% | viability, T/C [24]: 1.13% | viability, T/C [25]: 0.39% | viability, T/C [26]: 0.51% | viability, T/C [27]: 0.58% | viability, T/C [28]: 0.7% | viability, T/C [29]: 1.32% | viability, T/C [30]: 2.27% | viability, T/C [31]: 0.34% | viability, T/C [32]: 0.28% | viability, T/C [33]: 0.49% | viability, T/C [34]: 0.48% | viability, T/C [35]: 0.4% | viability, T/C [36]: 0.37%

COc1ccc([C@@H](O)c2cc(-c3ncnc4cc(N5CCOCC5)ccc34)c(F)cc2Cl)nn1 + CN1CCN(c2cc(C(=O)Nc3cc4cc(-c5cnn(C)c5)ccc4cn3)ccn2)CC1
IC50 (second compound 0.0316 µM): 6040 nM | IC50 (second compound 0.1 µM): 4230 nM | IC50 (second compound 0.316 µM): < 31.6 nM | IC50 (second compound 1 µM): < 31.6 nM | IC50 (second compound 3.16 µM): < 31.6 nM | IC50 (second compound 10 µM): < 31.6 nM | viability, T/C [1]: 119% | viability, T/C [2]: 111% | viability, T/C [3]: 88.8% | viability, T/C [4]: 78.2% | viability, T/C [5]: 59.3% | viability, T/C [6]: 42.5% | viability, T/C [7]: 114% | viability, T/C [8]: 99.9% | viability, T/C [9]: 73.7% | viability, T/C [10]: 70.6% | viability, T/C [11]: 57.6% | viability, T/C [12]: 37.2% | viability, T/C [13]: 18.3% | viability, T/C [14]: 22.8% | viability, T/C [15]: 16.8% | viability, T/C [16]: 18.1% | viability, T/C [17]: 18.5% | viability, T/C [18]: 16% | viability, T/C [19]: 0.76% | viability, T/C [20]: 0.63% | viability, T/C [21]: 0.7% | viability, T/C [22]: 1.13% | viability, T/C [23]: 1.12% | viability, T/C [24]: 1.02% | viability, T/C [25]: 0.38% | viability, T/C [26]: 0.32% | viability, T/C [27]: 1.16% | viability, T/C [28]: 0.36% | viability, T/C [29]: 0.35% | viability, T/C [30]: 0.98% | viability, T/C [31]: 0.49% | viability, T/C [32]: 0.35% | viability, T/C [33]: 0.33% | viability, T/C [34]: 0.39% | viability, T/C [35]: 1.26% | viability, T/C [36]: 0.36%
